Experiment [1] deals with T1, Human farnesyl protein transferase (Homo sapiens, UniProt P49354+P49356).
T1 construct: grown as monolayer cell cultures were used as a source of human enzyme; endogenous in cells; host or cells: KHOS (Kirsten virus transformed human osteosarcoma) cells, grown as solid tumors in nude mice or as monolayer cultures; 30-50% ammonium sulfate fraction, then Q Fast Flow Sepharose
In words: In vitro assay for inhibition of farnesyl protein transferase (scintillation proximity assay). Type of experiment: biochemical. As to conditions: concentration producing 50% inhibition of enzyme activity; [3H]-farnesylpyrophosphate and biotinylated lamin B peptide substrates, 60 min at 37° C. Here is the method:
Human farnesyl protein transferase was prepared essentially as described (Y. Reiss et al., Methods: A Companion to Methods in Enzymology vol 1, 241-245, 1990). Kirsten virus transformed human osteosarcoma (KHOS) cells (American Type Culture Collection, Rockville, Md., USA) grown as solid tumors in nude mice or grown as monolayer cell cultures were used as a source of human enzyme. Briefly, cells or tumors were homogenized in buffer containing 50 mM Tris, 1 mM EDTA, 1 mM EGTA and 0.2 mM phenylmethylsulfonylfluoride (pH 7.5). The homogenates were centrifuged 28,000×g for 60 min and the supernatants collected. A 30-50% ammonium sulfate fraction was prepared, and the resulting precipitate was resuspended in a small (10 to 20 ml) volume of dialysis buffer containing 20 mM Tris 1 mM dithiothreitol and 20 μM ZnCl2. The ammonium sulfate fraction was dialyzed overnight against two changes of the same buffer. The dialyzed material was applied to a 10×1 cm Q Fast Flow Sepharose (Pharmacia LKB Biotechnology Inc., Piscataway, N.J., USA) which had been preequilibrated with 100 ml of dialysis buffer supplemented with 0.05 M NaCl. The column was washed with an additional 50 ml of dialysis buffer plus 0.05 M NaCl followed by a gradient from 0.05 M to 0.25 M NaCl prepared in dialysis buffer. The enzyme activity was eluted with a linear gradient of 0.25 to 1.0 M NaCl prepared in the dialysis buffer. Fractions containing 4 to 5 ml volumes of column eluate were collected and analyzed for farnesyl protein transferase activity. Fractions with enzyme activity were pooled and supplemented with 100 μM ZnCl2. Enzyme samples were stored frozen at −70° C.
The activity of farnesyl protein transferase was measured using the Farnesyl Transferase [^3H] Scintillation Proximity Assay (Amersham International plc., England) under the conditions specified by the manufacturer. To assay for inhibitors of the enzyme, 0.20 μCi of the [^3H]-famesylpyrophosphate substrate and the biotinylated lamin B peptide substrate (biotin-YRASNRSCAIM) were mixed with test compounds in a reaction buffer consisting of 50 mM HEPES, 30 mM MgCl2, 20 mM KCl, 5 mM dithiothreitol, 0.01% Triton X-100. Test compounds were delivered in a 10 μl volume of dimethylsulfoxide (DMSO) to achieve concentrations of 1 and 10 μg/ml in a final volume of 100 μl. The reaction mixture was warmed to 37° C. The enzyme reaction was started by adding 20 μl of diluted human farnesyl protein transferase. Sufficient enzyme preparation was added to produce between 4000 to 15000 cpm of reaction product during the 60 min of reaction incubation at 37° C. Reactions were terminated by the addition of STOP/scintillation proximity bead reagent (Amersham). The reaction product [^3H]-farnesyl-(Cys)-biotin lamin B peptide was captured on the streptavidin linked scintillation proximity bead. The amount of [^3H]-farnesyl-(Cys)-biotin lamin B peptide synthesized in the presence or absence of test compounds was quantified as cpm by counting on a Wallac Model 1480 Microbeta Liquid Scintillation Counter. The cpm of product was considered to be farnesyl protein transferase activity. The protein farnesyl transferase activity observed in the presence of test compound was normalized to farnesyl transferase activity in the presence of 10% DMSO and expressed as per cent inhibition. […] The effects of test compounds in these studies were calculated as IC50 (concentration of test compound producing 50% inhibition of enzyme activity) using the LGICV50 computer program written by the Science Information Division of R. W. Johnson Pharmaceutical Research Institute (Spring House, Pa., USA) on a VAX computer.
(In general: In a scintillation proximity assay essentially only radioactivity close to the scintillant gives light.)

The test system of experiment [2] is NIH 3T3 cells transformed by the T24 activated human H-ras gene. The experiment is described as follows: Ras-transformed cell phenotype reversion assay. The class given is cell-based, mouse. As to conditions: cell counts after 72 hours proliferation, corrected for initial input of 200,000 cells. The text has this: Insertion of activated oncogenes such as the mutant ras gene into mouse NIH 3T3 cells converts the cells to a transformed phenotype. The cells become tumorigenic, display anchorage independent growth in semi-solid medium and lose contact inhibition. Loss of contact inhibition produces cell cultures which no longer form uniform monolayers. Rather, the cells pile up into multicellular nodules and grow to very high saturation densities in plastic tissue culture dishes. Agents such as protein farnesyl transferase inhibitors which revert the ras transformed phenotype restore the uniform monolayer growth pattern to cells in culture. This reversion is easily monitored by counting the number of cells in tissue culture plates. Transformed cells will achieve higher cell numbers than cells which have reverted to an untransformed phenotype. Compounds which revert the transformed phenotype should produce antitumor effects in tumors bearing ras gene mutations.
Compounds are screened in tissue culture in NIH 3T3 cells transformed by the T24 activated human H-ras gene. Cells are seeded at an initial density of 200,000 cells per well (9.6 cm^2 surface area) in six-well cluster tissue culture plates. Test compounds are immediately added to 3.0 ml cell growth medium in a 3.0 μl volume of DMSO, with a final concentration of DMSO in the cell growth medium of 0.1%. The test compounds are run at concentrations of 5, 10, 50, 100, and 500 nM along with a DMSO treated vehicle control. (In case a high activity is observed at 5 nM, the test compound is tested at even lower concentrations.) The cells are allowed to proliferate for 72 hours. Then the cells are detached in 1.0 ml trypsin-EDTA cell dissociation medium and counted on a Coulter particle counter.
Cell numbers expressed as cells per well are measured using a Coulter Particle Counter.
All cell counts were corrected for the initial cell input density by subtracting 200,000.
Control cell counts=[cell counts from cells incubated with DMSO vehicle −200,000].
Test compound cell counts=[cell counts from cells incubated with test compound −200,000]. [formula]
IC50 (i.e. the test compound concentration required to inhibit enzyme activity by 50%) is calculated if sufficient data are available, summarized in table 11.

Structures can show the parent of a compound that is named as a salt.

Usually IC50 stands for the concentration at which inhibition is half-maximal.

In turn, `COC(c1ccc(Cl)cc1)(c1ccc2c(c1)c(-c1cccc(Cl)c1)cc(=O)n2C)c1cncn1C` (racemic) [Compound 4, (±)-4-(3-chlorophenyl)-6-[(4-chlorophenyl)methoxy(1-methyl-1H-imidazol-5-yl)methyl]-1-methyl-2(1H)-quinolinone ethanedioate(1:1).dihydrate] came in with an IC50 in experiment [1] of 24 nM.

Take `Cn1cncc1C(c1ccc(Cl)cc1)c1ccc2c(c1)c(-c1cccc(Cl)c1)cc(=O)n2C` (racemic) [Compound 5, (±)-4-(3-chlorophenyl)-6-[(4-chlorophenyl)(1-methyl-1H-imidazol-5-yl)methyl]-1-methyl-2(1H)-quinolinone ethanedioate(1:1).mono-hydrate]: the IC50 in experiment [2] (NIH3T3) is 32 nM; in experiment [1], 25 nM.

For `COc1cccc(-c2cc(=O)n(C)c3ccc(C(O)(c4ccc(Cl)cc4)c4cncn4C)cc23)c1` (racemic) [Compound 36, (±)-6-[(4-chlorophenyl)hydroxy(1-methyl-1H-imidazol-5-yl)methyl]-4-(3-methoxyphenyl)-1-methyl-2(1H)-quinolinone], in experiment [1], the IC50 was 2.8 nM.

`CNC(c1ccc(Cl)cc1)(c1ccc2c(c1)c(-c1cccc(Cl)c1)cc(=O)n2C)c1cncn1C` (racemic) [Compound 61, (±)-4-(3-chlorophenyl)-6-[(4-chlorophenyl)(methylamino)(1-methyl-1H-imidazol-5-yl)methyl]-1-methyl-2(1H)-quinolinone monohydrate]: the half-maximal inhibitory concentration (IC50) in experiment [2] (NIH3T3) amounted to 310 nM; in experiment [1], 1.1 nM.

For `Cn1cncc1C(CCl)(c1ccc(Cl)cc1)c1ccc2c(c1)c(-c1cccc(Cl)c1)cc(=O)n2C` (racemic) [Compound 69, (±)-6-[2-chloro-1-(4-chlorophenyl)-1-(1-methyl-1H-imidazol-5-yl)ethyl]-4-(3-chlorophenyl)-1-methyl-2(1H)-quinolinone ethanedioate (1:1)], the IC50 is 14 nM in experiment [2] (NIH3T3) and 3.4 nM in experiment [1].

Compound `COCC(=O)NC(c1ccc(Cl)cc1)(c1ccc2c(c1)c(-c1cccc(Cl)c1)cc(=O)n2C)c1cncn1C` (racemic) [Compound 89, (±)-N-[(4-chlorophenyl)[4-(3-chlorophenyl)-1,2-dihydro-1-methyl-2-oxo-6-quinolinyl](1-methyl-1H-imidazol-5-yl)methyl]-2-methoxyacetamide monohydrochloride] gave an IC50 in experiment [2] (NIH3T3) of 24 nM.

On to `Cn1cncc1C(c1ccc(Cl)cc1)c1ccc2c(c1)c(-c1cccc(Cl)c1)cc(=S)n2C` (racemic) [Compound 128, (±)-4-(3-chlorophenyl)-6-[(4-chlorophenyl)(1-methyl-1H-imidazol-5-yl)methyl]-1-methyl-2(1H)-quinolinethione], for which the IC50 in experiment [2] (NIH3T3) stood at 177 nM.

Take `Cn1cncc1C(N)(c1ccc(Cl)cc1)c1ccc2c(c1)c(-c1cccc(Cl)c1)c(Cl)c(=O)n2C` (racemic) [Compound 143, (±)-6-[amino(4-chlorophenyl)(1-methyl-1H-imidazol-5-yl)methyl]-3-chloro-4-(3-chlorophenyl)-1-methyl-2(1H)-quinolinone]: in experiment [2] (NIH3T3), it took 82 nM to reach half-maximal inhibition (IC50).

In experiment [1], `Cn1cncc1C(O)(c1ccc(Cl)cc1)c1ccc2c(c1)c(-c1ccccc1)cc(=O)n2C` (centres unmarked) [Compound 1] had an IC50 of 6 nM.

Turning to `Cn1cncc1C(c1ccc(Cl)cc1)c1ccc2[nH]c(=O)cc(-c3cccc(Cl)c3)c2c1` (centres unmarked) [Compound 7], in experiment [1], the concentration for half-maximal inhibition (IC50) is 1.6 nM.

In experiment [1], `Cn1cncc1C(OCCCO)(c1ccc(Cl)cc1)c1ccc2c(c1)c(-c1cccc(Cl)c1)cc(=O)n2C` (centres unmarked) [Compound 15] returned an IC50 of 18.4 nM.

In the case of `Cn1cncc1C(O)(c1ccc(Cl)cc1)c1ccc2c(c1)c(-c1cccc(Cl)c1)cc(=O)n2C` (centres unmarked) [Compound 23, (A)-4-(3-chlorophenyl)-6-[(4-chlorophenyl)-hydroxy(1-methyl-1H-imidazol-5-yl)methyl]-1-methyl-2(1H)-quinolinone ethanedioate (1:1)], in experiment [2], the IC50 came out at 395 nM.

Consider `Cn1cncc1C(O)(c1ccc(Cl)cc1)c1ccc2c(c1)c(-c1cccc(Cl)c1)cc(=O)n2C` (centres unmarked) [Compound 24, (B)-4-(3-chlorophenyl)-6-[(4-chlorophenyl)hydroxy(1-methyl-1H-imidazol-5-yl)methyl]-1-methyl-2(1H)-quinolinone ethanedioate(1:1)], for which the results for the IC50 in experiment [2] (NIH3T3) and in experiment [1] were 16 nM and 2.7 nM, respectively.

For `CCOCCCOC(c1ccc(Cl)cc1)(c1ccc2c(c1)c(-c1cccc(Cl)c1)cc(=O)n2C)c1cncn1C` (centres unmarked) [Compound 29], the IC50 in experiment [2] (NIH3T3) came out at 345 nM; in experiment [1], 57 nM.

Take `CCCOc1cccc(-c2cc(=O)n(C)c3ccc(C(O)(c4ccc(Cl)cc4)c4cncn4C)cc23)c1` (centres unmarked) [Compound 37]: inhibition in experiment [1] was half-maximal at 10.1 nM (IC50).

In experiment [1], `Cn1c(=O)cc(-c2ccccc2)c2cc(C(c3ccc(Cl)cc3)c3c[nH]cn3)ccc21` (centres unmarked) [Compound 42] registered an IC50 of 910 nM.

In experiment [1], `Cn1c(=O)cc(-c2cccc(Cl)c2)c2cc(C(c3ccc(Cl)cc3)c3c[nH]cn3)ccc21` (centres unmarked) [Compound 45] had an IC50 of 1000 nM.

Take `CCCOc1cccc(-c2cc(=O)n(C)c3ccc(C(c4ccc(Cl)cc4)c4cncn4C)cc23)c1` (centres unmarked) [Compound 52]: the IC50 in experiment [1] is 5.7 nM.

As for `CCOC(=O)CC(c1ccc(Cl)cc1)(c1ccc2c(c1)c(-c1cccc(Cl)c1)cc(=O)n2C)c1cncn1C` (centres unmarked) [Compound 58], the IC50 came to 96 nM in experiment [2] (NIH3T3) and 2.8 nM in experiment [1].

Consider `Cn1cncc1C(c1ccc(Cl)cc1)(c1ccc2c(c1)c(-c1cccc(Cl)c1)cc(=O)n2C)n1ccnc1` (centres unmarked) [Compound 60], for which the IC50 in experiment [2] (NIH3T3) worked out at 70 nM; in experiment [1], 0.62 nM.

As for `Cn1cncc1C(O)(c1ccc(Cl)cc1)c1ccc2c(c1)c(-c1cccc(OCCO)c1)cc(=O)n2C` (centres unmarked) [Compound 63], the IC50 came to 53 nM in experiment [2] (NIH3T3) and 1 nM in experiment [1].

On to `Cn1cncc1C(O)(c1ccc(Cl)cc1)c1ccc2c(c1)c(-c1cccc(O)c1)cc(=O)n2C` (centres unmarked) [Compound 64], for which, in experiment [1], the 50% inhibitory concentration (IC50) was determined as 11.6 nM.

Take `CCc1cccc(-c2cc(=O)n(C)c3ccc(C(O)(c4ccc(Cl)cc4)c4cncn4C)cc23)c1` (centres unmarked) [Compound 97]: the IC50 in experiment [1] came out at 2.9 nM.

The compound `CCCc1cccc(-c2cc(=O)n(C)c3ccc(C(O)(c4ccc(Cl)cc4)c4cncn4C)cc23)c1` (centres unmarked) [Compound 99] displayed an IC50 in experiment [1] of 1.7 nM.

The values above are taken from patent US6420387B1, “Farnesyl protein transferase inhibiting (imidazol-5-yl) methyl-2-quinolinone derivatives” (Janssen Pharmaceutica N.V., priority 1995, dated 2002).
